The source of these data is patent publication US11377452B2, “Glutamate transporter activators and methods using same” (DREXEL UNIVERSITY, priority 2017, dated 2022).

One experiment concerns NMDA receptors. In words: NMDA-induced calcium response, calcium imaging in cultured cortical neurons. Type of experiment: cell-based, mouse. Conditions: 100 μM NMDA with 3 μM glycine, no Mg2+; AP-V at 40 μM. The method, then: To determine whether the compounds have effects on the function of NMDA receptors, calcium imaging recordings from cultured cortical neurons were performed as described previously (Nicolai, et al., 2010, Cell Death Dis. 1:e33).
Primary cortical neurons were obtained from the cerebral cortex of neonatal (P1 or P2) C57BL/6 mice, plated at a density of 3000 cells/12 mm round coverslip, and cultured in medium containing Neurobasal A, fetal calf serum (2%), heat-inactivated horse serum (2%), L-glutamax-1 (0.2 mM), and B-27 supplement (2%). Cells were maintained at 37° C. in a humidified atmosphere containing 5% CO2. The calcium imaging experiments were conducted on DIV 1.
Recordings were performed in living neurons, as described (Xia, et al., 2014, J. Physiol. 592:3443-3461). Briefly, cultured neurons were loaded with a Fura-2 calcium dye in Tyrode's solution containing (in mM) 140 NaCl, 5 KCl, 2 CaCl2, 1 MgCl2, 10 HEPES, and 5.6 glucose. Coverslips were mounted in the imaging chamber (model RC-25, Warner Instruments, Hamden, Conn.) and continuously perfused with Tyrode's solution containing 0.5 μM tetrodotoxin. Images were acquired in 3 s intervals at room temperature (20-22° C.) using an Olympus inverted microscope equipped with a CCD camera (Hamamatsu ORCA-03G, Japan). The fluorescence ratio was determined as the fluorescence intensities excited at 340 and 380 nm with background subtracted. 100 μM NMDA was applied in the presence of 3 μM glycine and in the absence of Mg^2+. The NMDA receptor antagonist AP-V (40 μM) was applied to certify that the result was specifically the NMDA-induced calcium response. Vehicle, GT949, or GT951 was applied, and calcium changes were recorded.
Recordings were performed in living neurons, as described (Xia, et al., 2014, J. Physiol. 592:3443-3461). Briefly, cultured neurons were loaded with Fura-2 calcium dye in Hank's balanced salt solution (HBSS). 100 μM NMDA was applied in the presence of 3 μM glycine and in the absence of Mg^2+. […] Vehicle, GT949, or GT951 was applied, and calcium currents were recorded.

Experiment [1] deals with T1, EAAT2 (Homo sapiens, UniProt P43004).
T1 construct: expressed in transfected cells; host or cells: COS-7
In words: Dose-response glutamate uptake in COS-7 cells transfected with EAAT2. Conditions: for kind of modulation of EAAT2 glutamate uptake in dose-response assays: COS-7 cells expressing EAAT2. It counts as cell-based. An excerpt:
(§1) COS-7 cells were maintained in DMEM with 10% fetal calf serum under 5% CO2. Transfection with empty vector pCMV-5 was used to control for the level of endogenous uptake of radiolabeled substrate in each experimental condition. The specificity of the effect of the compounds was investigated in COS-7 cells transiently transfected with glutamate transporter subtypes EAAT1-3 and monoamine transporters hNET (human noradrenaline transporter), hDAT (dopamine transporter), and hSERT (serotonin transporter).
(§2) For glutamate uptake assays, subconfluent COS-7 cells were transfected with 0.5 μg of plasmid DNA per well using TransIT-LT1 transfection reagent (Mirus Bio LLC, Madison, Wis.) and plated at a density of ˜100 000 cells per well in 24-well tissue culture plates. For monoamine uptake assays, cells were transfected 0.1 μg of DNA per well as above and plated at a density of 10 000 cells per well in 96-wells plates.
Uptake reactions were initiated by the addition of 50 nM ^3H-L-glutamate, serotonin, dopamine, or noradrenaline, as appropriate.
All reactions were carried out for 10 min; then, uptake was terminated by removal of solution, followed by two washes with PBSCM. Cells in 24-well plates were lysed with 1% SDS/0.1 M NaOH. Lysate was transferred to scintillation vials containing 3 mL of scintillation fluid, and radioactivity was quantified in an LS 6500 scintillation counter (Beckman Coulter, Brea, Calif.). For 96-well plates, scintillation fluid was added to each well, and the plate was counted in a Wallac M50 microbeta scintillation analyzer.

A further experiment deals with T2, EAAT1 (Homo sapiens, UniProt P43003).
T2 construct: expressed in transfected cells; host or cells: COS-7
In words: Dose-response glutamate uptake in COS-7 cells transfected with EAAT1. Type of experiment: cell-based.
Text: as §1, §2
[…]. […]
(§3) All reactions were carried out for 10 min; then, uptake was terminated by removal of solution, followed by two washes with PBSCM. […] Lysate was transferred to scintillation vials containing 3 mL of scintillation fluid, and radioactivity was quantified in an LS 6500 scintillation counter (Beckman Coulter, Brea, Calif.). For 96-well plates, scintillation fluid was added to each well, and the plate was counted in a Wallac M50 microbeta scintillation analyzer.

A further experiment deals with T3, EAAT3 (Homo sapiens, UniProt P43005).
T3 construct: expressed in transfected cells; host or cells: COS-7
T3 sequence (P43005 1-524): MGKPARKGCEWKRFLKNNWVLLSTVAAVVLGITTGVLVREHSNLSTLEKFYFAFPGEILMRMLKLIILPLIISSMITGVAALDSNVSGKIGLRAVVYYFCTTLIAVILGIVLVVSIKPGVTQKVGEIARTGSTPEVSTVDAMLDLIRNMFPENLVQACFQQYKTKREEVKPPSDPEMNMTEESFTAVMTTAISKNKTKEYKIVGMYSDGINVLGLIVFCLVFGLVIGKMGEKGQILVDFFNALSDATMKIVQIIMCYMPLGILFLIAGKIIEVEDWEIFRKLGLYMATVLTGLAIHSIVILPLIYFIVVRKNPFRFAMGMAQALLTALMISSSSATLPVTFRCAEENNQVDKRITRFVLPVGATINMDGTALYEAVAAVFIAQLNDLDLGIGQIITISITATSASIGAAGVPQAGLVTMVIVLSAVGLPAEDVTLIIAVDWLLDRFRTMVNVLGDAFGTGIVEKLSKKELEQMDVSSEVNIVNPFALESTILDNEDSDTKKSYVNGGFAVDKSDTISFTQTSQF
Kind of experiment: Dose-response glutamate uptake in COS-7 cells transfected with EAAT3. Type of experiment: cell-based.
Text: as §1, §2
[…]. […]
as §3

Experiment [2] addresses T1, EAAT2. Kind of experiment: Kinetic assay of L-glutamate uptake in EAAT2-transfected COS-7 cells. It counts as cell-based. The note with it: GT949 and GT951 pre-incubated at 1 nM.
Text: as §1, §2, §3

Another experiment has as its system cultured astrocytes. In words: Glutamate uptake in cultured astrocytes. Type of experiment: cell-based, rat. The method, then: Glia was prepared and cultured according to Shimizu, et al., 2011, J. Visualized Exp. e3257 with modifications. Briefly, cerebral cortices from 2-4 day old Holtzman rat pups were dissected under sterile conditions and placed in 60 mm dishes containing dissection medium (in mM: 16 glucose, 22 sucrose, 135 NaCl, 5 KCl, 1 Na2HPO4, 0.22 KH2PO4, 10 HEPES, pH 7.4, Osmolarity 310+10 mOsm). Tissue was minced with curved scissors and digested in 0.25% trypsin for 15 min. Trypsin activity was ended by transferring tissue pieces to another vial with dissection medium. Tissue was then repeatedly passed through a serological plastic pipette until it was dissociated by trituration in the presence of 60 μg/mL DNase. Cells were pelleted by centrifugation for 15 min at 280 g and resuspended in glia plating medium (90% DMEM, 10% FBS, and 50 μg/mL gentamicin) and transferred to culture flasks kept in a 37° C. incubator (5-10% CO2). After growth for 10 days in vitro (DIV), cells were detached with 0.05% trypsin, centrifuged, and plated at a density of 10 000 cells/well in polylysine-coated 96-well plates. Plates were grown for 14 DIV before uptake assays were performed.
Assays were performed as described (Timple, et al., 2013, J. Nat. Prod. 76:1889-1895). Briefly, using an Elx50 Biotek plate washer (Winooski, Vt., USA), cells were washed in PBS-CM buffer. For dose-response assays, vehicle and several concentrations of the compounds (0.01 nM to 1 μM) were added and incubated for 10 min at 37° C. Uptake assays were initiated by addition of 50 nM L-[^3H]-glutamate, and incubation was carried on for 10 min at room temperature. Nonspecific uptake was obtained in the presence of 10 μM DL-TBOA.
Reactions were finished by washing the plates twice with PBS-CM and the addition of 100 μL of scintillation fluid to each well. Radioactivity was counted in a microplate scintillation and luminescence counter (Wallac, Shelton, Conn., USA).

T1 sequence (P43004 whole entry): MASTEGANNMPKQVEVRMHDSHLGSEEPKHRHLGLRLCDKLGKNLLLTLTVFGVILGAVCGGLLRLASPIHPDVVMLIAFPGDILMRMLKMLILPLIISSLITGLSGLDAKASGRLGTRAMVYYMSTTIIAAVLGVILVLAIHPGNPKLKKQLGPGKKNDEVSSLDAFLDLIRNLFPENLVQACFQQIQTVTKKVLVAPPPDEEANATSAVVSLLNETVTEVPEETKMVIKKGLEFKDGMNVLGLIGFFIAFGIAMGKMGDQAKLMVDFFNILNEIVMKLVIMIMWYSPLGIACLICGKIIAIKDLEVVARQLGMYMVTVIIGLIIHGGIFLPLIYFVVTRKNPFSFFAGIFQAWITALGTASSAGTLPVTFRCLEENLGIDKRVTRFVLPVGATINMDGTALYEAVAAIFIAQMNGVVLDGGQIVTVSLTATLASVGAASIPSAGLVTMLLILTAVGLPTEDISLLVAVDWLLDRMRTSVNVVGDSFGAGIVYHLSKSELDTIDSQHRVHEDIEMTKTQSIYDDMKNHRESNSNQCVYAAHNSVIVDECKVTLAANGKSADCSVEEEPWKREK
T2 sequence (P43003 whole entry): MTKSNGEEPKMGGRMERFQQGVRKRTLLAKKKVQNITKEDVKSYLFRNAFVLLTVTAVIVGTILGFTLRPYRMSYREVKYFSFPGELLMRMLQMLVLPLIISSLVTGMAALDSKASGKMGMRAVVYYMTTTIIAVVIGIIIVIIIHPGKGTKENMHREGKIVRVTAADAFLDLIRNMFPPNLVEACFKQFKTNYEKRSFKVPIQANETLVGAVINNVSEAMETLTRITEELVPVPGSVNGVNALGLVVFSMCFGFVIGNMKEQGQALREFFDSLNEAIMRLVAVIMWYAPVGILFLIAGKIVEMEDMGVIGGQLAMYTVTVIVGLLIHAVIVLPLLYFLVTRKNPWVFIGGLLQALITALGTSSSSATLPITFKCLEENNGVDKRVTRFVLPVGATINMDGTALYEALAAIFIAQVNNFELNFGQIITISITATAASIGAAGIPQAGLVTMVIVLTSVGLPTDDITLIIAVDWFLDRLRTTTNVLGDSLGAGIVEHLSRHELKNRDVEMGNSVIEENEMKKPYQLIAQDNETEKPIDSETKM

As for `NC(CCCP(=O)(O)O)C(=O)O` (racemic) [AP-V, (DL)-2-amino-5-phosphonovaleric acid, reference compound], in the experiment on NMDA receptors, the “effect on NMDA-induced calcium response” value is “drastically attenuated”.

Take `Cc1ccc(C)c2[nH]c(=O)c(C(c3nnnn3CCc3ccccc3)N3CCN(Cc4ccc5c(c4)OCO5)CC3)cc12` (stereo not drawn) [GT867, 3-((4-(benzo[d][1,3]dioxol-5-ylmethyl)piperazin-1-yl)(1-phenethyl-1H-tetrazol-5-yl)methyl)-5,8-dimethylquinolin-2(1H)-one]: at EAAT2 [1], the “kind of modulation of EAAT2 glutamate uptake in dose-response assays” value (from here on “kind”) is on record as “no effect”.

On to `C=CCN1CC(c2nc3ccccc3n2CCCOc2ccc(C(C)CC)cc2)CC1=O` (stereo not drawn) [GT922, 1-allyl-4-(1-(3-(4-(sec-butyl)phenoxy)propyl)-1H-benzo[d]imidazol-2-yl)pyrrolidin-2-one], for which, on EAAT2 [1], the “kind” value is “inhibitors”.

In the case of `C=CCN1CC(c2nc3ccccc3n2CCCCOc2ccc(C)c(C)c2)CC1=O` (stereo not drawn) [GT938, 1-allyl-4-(1-(4-(3,4-dimethylphenoxy)butyl)-1H-benzo[d]imidazol-2-yl)pyrrolidin-2-one], the “kind” value on EAAT2 [1] is on record as “inhibitors”.

By EC50 is commonly meant the concentration needed to bring the measured effect to its halfway point. For `C=CCN1CC(c2nc3ccccc3n2CCCCOc2ccc(Cl)c(C)c2)CC1=O` (stereo not drawn) [GT939, 1-allyl-4-(1-(4-(4-chloro-3-methylphenoxy)butyl)-1H-benzo[d]imidazol-2-yl)pyrrolidin-2-one], on EAAT2 [1], the “kind” value was “PAMs”. Further, the EC50 on EAAT2 [1] (COS-7 cells transfected with EAAT2, compound 10 min 37 °C, 50 nM 3H-L-glutamate, mean±SEM, read-out: EC50 (ED50) of enhancement of EAAT2-mediated glutamate transport) turned out to be 0.7 ± 0.2 nM. Moreover, the “effect on EAAT1-mediated glutamate transport” value at EAAT1 was “no effect”. The “effect on EAAT3-mediated glutamate transport” value at EAAT3 is “no effect”. The “effect on Vmax of transport” value at EAAT2 [2] is on record as “increased Vmax”. For the same compound, the “effect on NMDA-induced calcium response” value in the experiment with NMDA receptors is recorded as “no effects”.

In the case of `COc1ccc2[nH]c(=O)c(C(c3nnnn3CCc3ccccc3)N3CCN(c4cccc(C(F)(F)F)c4)CC3)cc2c1` (stereo not drawn) [GT951, 6-methoxy-3-((1-phenethyl-1H-tetrazol-5-yl)(4-(3-(trifluoromethyl)phenyl)piperazin-1-yl)methyl)quinolin-2(1H)-one], the “effect on EAAT1-mediated glutamate transport” value at EAAT1 is reported as “no effect”. Besides, the “effect on EAAT3-mediated glutamate transport” value at EAAT3 is “no effect”. Also, the EC50 with cultured astrocytes (Rattus norvegicus, Astrocyte, cultured rat astrocytes, 50 nM 3H-L-glutamate, read-out: potency (EC50) of glutamate uptake enhancement in cultured astrocytes) was 0.3 ± 0.2 nM. The “efficacy of augmentation of glutamate transport in cultured astrocytes” value in the experiment on cultured astrocytes (cultured rat astrocytes) was around 27%. Moreover, the “effect on NMDA-induced calcium response” value with NMDA receptors is “no effects”.

Consider `O=C(c1ccc(S(=O)(=O)N2CCCC2)cc1)N1CCN(c2nc(-c3ccccc3)nc3sc4c(c23)CCC4)CC1` [GT988, (4-(2-phenyl-6,7-dihydro-5H-cyclopenta [4,5]thieno[2,3-d]pyrimidin-4-yl)piperazin-1-yl)(4-(pyrrolidin-1-ylsulfonyl)phenyl) methanone], for which the “kind” value at EAAT2 [1] was “no effect”.

For `Cc1cc(C)c2cc(C(c3nnnn3CCc3ccccc3)N3CCN(C(=O)c4ccco4)CC3)c(=O)[nH]c2c1` (stereo not drawn) [GT996, 3-((4-(furan-2-carbonyl)piperazin-1-yl)(1-phenethyl-1H-tetrazol-5-yl)methyl)-5,7-dimethylquinolin-2(1H)-one], the “modulation of glutamate transport in cultured astrocytes” value with cultured astrocytes (cultured rat astrocytes, negative control) was “inactive”.

For `COc1ccc(C2C(C#N)=C(N)OC3=C2C(=O)CC(c2cccc4ccccc24)C3)cc1` (stereo not drawn) [UCPH-101, 2-Amino-5,6,7,8-tetrahydro-4-(4-methoxyphenyl)-7-(naphthalen-1-yl)-5-oxo-4H-chromene-3-carbonitrile, reference compound], the “inhibition of glutamate uptake in cultured glial cells by selective EAAT inhibitors” value in the experiment with cultured astrocytes (50 nM 3H-L-glutamate) was “partial inhibition”.
